The record followed here is patent US9085551B2, “Solid forms of 3-(4-nitro-1-oxisoindolin-2-yl)piperidine-2,6-dione” (Celgene Corporation, priority 2012, dated 2015).

“Also recorded” adds a separate entry of the source.

Type in all cases: physicochemical
The nature of series [1]: Dynamic Vapor Sorption (DVS) hygroscopicity. The following applies: for total mass change between 0% and 90% relative humidity: DVS at 25° C., 0% to 90% RH; for hygroscopicity: DVS, 0% to 90% relative humidity; for XRPD pattern after adsorption/desorption cycles: after DVS. How it is done:
Hygroscopicity was determined on a Surface Measurement Systems DVS. Typically a sample size of 5-30 mg was loaded into the DVS instrument sample pan and the sample was analyzed on a DVS automated sorption analyzer at 25° C. The relative humidity was increased from 0% to 90% RH at 10% RH step. The relative humidity was then decreased in a similar manner to accomplish a full adsorption/desorption cycle.

Series [2] is described as follows: Equilibration (slurry) of solid forms in batch solvents, solid analyzed by XRPD. The method, then: Equilibration studies using single, binary and ternary combinations of batch solvents (water, acetone, and acetonitrile) were investigated to mimic key steps in manufacturing 3-(4-nitro-1-oxoisoindolin-2-yl)piperidine-2,6-dione. Materials of 3-(4-nitro-1-oxoisoindolin-2-yl)piperidine-2,6-dione and solvent or solvent mixtures were added to a glass vial to achieve free-flowing slurry and allowed to equilibrate at the specified temperature. […] The solid phase was then dried under air and analyzed by XRPD.
A total of four batches of 3-(4-nitro-1-oxoisoindolin-2-yl)piperidine-2,6-dione were characterized by XRPD, DSC, TGA, ATR-FTIR and DVS, as described in section 6.5. The solid form represented by the batch 1 was designated as Form A; the solid form represented by the batch 4 was designated as Form B; the batches 2 and 3 were determined to be mixtures of Forms A and B, with Form B dominating the patterns. The equilibration experiments were performed using batches 2, 3 and 4, and the results are described in Table 2.
(§1) All of the solid samples generated in the polymorph screen were analyzed by XRPD. XRPD analysis was conducted on a PANalytical Empyrean or a Thermo ARL X'TRA X-ray powder diffractometer using Cu Kα radiation at 1.54 Å.

Series [3] can be described thus: Additional form conversion experiments (heating, slurry), XRPD. The method, then: as §1

`O=C1CCC(N2Cc3c(cccc3[N+](=O)[O-])C2=O)C(=O)N1` (single isomer, unassigned) [Form A, 3-(4-nitro-1-oxoisoindolin-2-yl)piperidine-2,6-dione]: in series [1], the “total mass change between 0% and 90% relative humidity” value came out at 0.42%; the hygroscopicity result is reported as “not hygroscopic”; the “XRPD pattern after adsorption/desorption cycles” value is listed as “no change”. Besides, in series [2] (form conversion studies), the “conversion to other forms” value was “no conversion” and the “relative thermodynamic stability of the form” value is reported as “most thermodynamically stable form”.
Take `O=C1CCC(N2Cc3c(cccc3[N+](=O)[O-])C2=O)C(=O)N1` (single isomer, unassigned) [Form C, 3-(4-nitro-1-oxoisoindolin-2-yl)piperidine-2,6-dione]: the “total mass change between 0% and 90% relative humidity” value in series [1] was 0.43%. In addition, in series [1], the hygroscopicity entry is listed as “not hygroscopic”. In addition, the “XRPD pattern after adsorption/desorption cycles” value in series [1] was “no change”. Moreover, in series [3] (ambient temperature, NMP/acetone/water (1:2.5:2.5), time not stated), the form conversion entry is “converts to Form A”. Also, the results for the “XRPD Result” value in series [3] (heated to 220° C. for 4 hours), in series [3] (slurry in NMP/Acetone/water at ambient for 5 days) and in series [3] (slurry in NMP/Acetone/water at ambient for 10 days) were “partially converts to Form A; also recorded: Form A + C”, “Form A + C” and “Form A + C”, respectively.
Consider `O=C1CCC(N2Cc3c(cccc3[N+](=O)[O-])C2=O)C(=O)N1` (single isomer, unassigned) [Form B, 3-(4-nitro-1-oxoisoindolin-2-yl)piperidine-2,6-dione], for which, in series [1], the “total mass change between 0% and 90% relative humidity” value was found to be 0.39%. The hygroscopicity entry in series [1] is on record as “not hygroscopic”. Besides, the “XRPD pattern after adsorption/desorption cycles” value in series [1] is “no change”. For the same compound, the “Form by XRPD” value is listed as “converts to Form A” in series [2] (equilibration in acetone, ambient, 8 days); “converts to Form A” in series [2] (equilibration in acetone/water (1:1), ambient, 8 days); “converts to Form A” in series [2] (equilibration in acetonitrile, 80° C. (or reflux), 6 hours); “converts to Form A” in series [2] (equilibration in acetonitrile/water (1:1), ambient, 8 days); “converts to Form A” in series [2] (equilibration in acetonitrile/water (2:1), 60° C., 6 hours); “converts to Form A” in series [2] (equilibration in acetonitrile/water/acetone (1:1:1), ambient, 8 days). For the same compound, the “Form by XRPD” value in series [2] (equilibration in water, ambient, 8 days) is “converts to Form A”. Also, in series [3] (heated to 220° C. for 4 hours), the “XRPD Result” value is given as “converts to Form A”.
